According to ChEMBL document CHEMBL4138105, “LL-37-derived short antimicrobial peptide KR-12-a5 and its d-amino acid substituted analogs with cell selectivity, anti-biofilm activity, synergistic effect with conventional antibiotics, and anti-inflammatory activity” (Eur J Med Chem, 2017):
In brackets after ≈: the same amount, converted by molar mass. Activity calls are given as the source filed them. The calls are words filed in the database; no cut-off is given here.

Experiments:
Pseudomonas aeruginosa [1] = assay: Potency index, ratio of LL-37 MIC to compound MIC for multidrug-resistant Pseudomonas aeruginosa CCARM 2109; assay type: functional
Staphylococcus aureus [2] = assay: Potency index, ratio of LL-37 MIC to compound MIC for methicillin resistant Staphylococcus aureus CCARM 3090; assay type: functional
Staphylococcus aureus [3] = assay: Potency index, ratio of LL-37 MIC to compound MIC for methicillin resistant Staphylococcus aureus CCARM 3095; assay type: functional
[4] = Therapeutic index, ratio of MHC10 for human RBC to MIC for Escherichia coli KCTC 1682; assay type: toxicity; details: red blood cells (RBC), pooled result: one value given for 6 cell lines, strains, targets or settings, read-out: TI
Staphylococcus aureus [5] = assay: Potency index, ratio of melittin MIC to compound MIC for methicillin resistant Staphylococcus aureus CCARM 3090; assay type: functional
Staphylococcus aureus [6] = assay: Antibacterial activity against Staphylococcus aureus KCTC 1621 in presence of 20% human serum after 24 hrs; assay type: functional; details: KCTC 1621, 24 h
Staphylococcus aureus [7] = assay: Antibacterial activity against methicillin resistant Staphylococcus aureus CCARM 3095 after 24 hrs; assay type: functional; details: CCARM 3095, 24 h
Escherichia coli [8] = assay: Antibacterial activity against Escherichia coli KCTC 1682 after 24 hrs; assay type: functional; details: KCTC 1682, 24 h
Escherichia coli [9] = assay: Antibacterial activity against Escherichia coli KCTC 1682 in presence of 6 uM NH4Cl after 24 hrs; assay type: functional; details: KCTC 1682, 24 h
Enterococcus faecium [10] = assay: Antibacterial activity against Vancomycin-resistant Enterococcus faecium ATCC 51559 after 24 hrs; assay type: functional; details: ATCC 51559, 24 h
Pseudomonas aeruginosa [11] = assay: Potency index, ratio of LL-37 MIC to compound MIC for multidrug-resistant Pseudomonas aeruginosa CCARM 2095; assay type: functional
Pseudomonas aeruginosa [12] = assay: Potency index, ratio of melittin MIC to compound MIC for multidrug-resistant Pseudomonas aeruginosa CCARM 2095; assay type: functional
Pseudomonas aeruginosa [13] = assay: Antibiofilm activity against multidrug-resistant Pseudomonas aeruginosa CCARM 2095 after 24 hrs by crystal violet staining based assay; assay type: functional
Pseudomonas aeruginosa [14] = assay: Antibacterial activity against Pseudomonas aeruginosa KCTC 1637 after 24 hrs; assay type: functional; details: KCTC 1637, 24 h
Staphylococcus aureus [15] = assay: Antibacterial activity against Staphylococcus aureus KCTC 1621 after 24 hrs; assay type: functional; details: KCTC 1621, 24 h
Staphylococcus aureus [16] = assay: Ratio of MIC for Staphylococcus aureus KCTC 1621 in presence of 20% human serum to MIC for Escherichia coli KCTC 1682 in presence of 20% human serum; assay type: functional
RAW264.7 [17] = assay: Anti-inflammatory activity in mouse RAW264.7 cells assessed as reduction in LPS-induced nitric oxide production at 10 to 20 uM after 24 hrs by Griess assay; assay type: functional, cell-based
Staphylococcus aureus [18] = assay: Antibacterial activity against Staphylococcus aureus KCTC 1621 in presence of 6 uM NH4Cl after 24 hrs; assay type: functional; details: KCTC 1621, 24 h
Staphylococcus aureus [19] = assay: Antibacterial activity against Staphylococcus aureus KCTC 1621 assessed as cytoplasmic membrane depolarization at 2 times MIC by disC3-5 dye based fluorescence assay; assay type: functional, organism-based
Pseudomonas aeruginosa [20] = assay: Synergistic antibacterial activity against multidrug-resistant Pseudomonas aeruginosa CCARM 2095 after 72 hrs in presence of oxacillin by chequerboard assay; assay type: functional
[21] = system: Staphylococcus epidermidis; assay: Antibacterial activity against Staphylococcus epidermidis KCTC 1917 after 24 hrs; assay type: functional; details: KCTC 1917, 24 h
Bacillus subtilis = assay: Antibacterial activity against Bacillus subtilis KCTC 3068 after 24 hrs; assay type: functional; details: KCTC 3068, 24 h
Staphylococcus aureus [22] = assay: Antibacterial activity against methicillin resistant Staphylococcus aureus CCARM 3090 after 24 hrs; assay type: functional; details: CCARM 3090, 24 h
Escherichia coli [23] = assay: Antibacterial activity against Escherichia coli KCTC 1682 in presence of 2.5 mM CaCl2 after 24 hrs; assay type: functional; details: KCTC 1682, 24 h
Staphylococcus aureus [24] = assay: Potency index, ratio of melittin MIC to compound MIC for methicillin resistant Staphylococcus aureus CCARM 3095; assay type: functional
RAW264.7 [25] = assay: Anti-inflammatory activity in mouse RAW264.7 cells assessed as reduction in LPS-induced IL-6 mRNA expression at 10 uM after 3 hrs by RT-PCR analysis; assay type: functional, cell-based
Salmonella typhimurium = assay: Antibacterial activity against Salmonella typhimurium KCTC 11926 after 24 hrs; assay type: functional, Salmonella enterica subsp. enterica serovar Typhimurium; details: Salmonella enterica, KCTC 11926, 24 h
Pseudomonas aeruginosa [26] = assay: Antibacterial activity against multidrug-resistant Pseudomonas aeruginosa CCARM 2095 after 24 hrs; assay type: functional; details: CCARM 2095, 24 h
Pseudomonas aeruginosa [27] = assay: Potency index, ratio of LL-37 MBIC90 to compound MBIC90 for antibiofilm activity against multidrug-resistant Pseudomonas aeruginosa CCARM 2095; assay type: functional
RAW264.7 [28] = assay: Anti-inflammatory activity in mouse RAW264.7 cells assessed as reduction in LPS-induced MCP-1 mRNA expression at 10 uM after 3 hrs by RT-PCR analysis; assay type: functional, cell-based
Pseudomonas aeruginosa [29] = assay: Synergistic antibacterial activity against multidrug-resistant Pseudomonas aeruginosa CCARM 2095 after 72 hrs in presence of chloramphenicol by chequerboard assay; assay type: functional
Erythrocyte = assay: Hemolytic activity in human RBC after 1 hr; assay type: ADME, cell-based
Escherichia coli [30] = assay: Antibacterial activity against Escherichia coli KCTC 1682 in presence of 1 mM MgCl2 after 24 hrs; assay type: functional; details: KCTC 1682, 24 h
Pseudomonas aeruginosa [31] = assay: Synergistic antibacterial activity against multidrug-resistant Pseudomonas aeruginosa CCARM 2095 after 72 hrs in presence of ciprofloxacin by chequerboard assay; assay type: functional
Escherichia coli [32] = assay: Antibacterial activity against Escherichia coli KCTC 1682 in presence of 4.5 mM KCl after 24 hrs; assay type: functional; details: KCTC 1682, 24 h
NIH3T3 = assay: Cytotoxicity against mouse NIH/3T3 cells up to 128 uM after 48 hrs by MTT assay; assay type: cell-based; details: nih3t3, 48 h
Enterococcus faecium [33] = assay: Potency index, ratio of melittin MIC to compound MIC for Vancomycin-resistant Enterococcus faecium ATCC 51559; assay type: functional
RAW264.7 [34] = assay: Anti-inflammatory activity in mouse RAW264.7 cells assessed as reduction in LPS-induced TNF-alpha mRNA expression at 10 uM after 3 hrs by RT-PCR analysis; assay type: functional, cell-based
Staphylococcus aureus [35] = assay: Antibacterial activity against Staphylococcus aureus KCTC 1621 in presence of 1 mM MgCl2 after 24 hrs; assay type: functional; details: KCTC 1621, 24 h
Pseudomonas aeruginosa [36] = assay: Potency index, ratio of melittin MIC to compound MIC for multidrug-resistant Pseudomonas aeruginosa CCARM 2109; assay type: functional
Escherichia coli [37] = assay: Antibacterial activity against Escherichia coli KCTC 1682 in presence of 150 mM NaCl after 24 hrs; assay type: functional; details: KCTC 1682, 24 h
Staphylococcus aureus [38] = assay: Potency index, ratio of melittin MIC to compound MIC for methicillin resistant Staphylococcus aureus CCARM 3089; assay type: functional
Lipid bilayer = assay: Binding affinity to EYPE/EYPG small unilamellar vesicles assessed as intrinsic tryptophan acrylamide quenching constant by fluorescence assay (reference value: 5.95 to 7.56 /M)
RAW264.7 [39] = assay: Anti-inflammatory activity in mouse RAW264.7 cells assessed as reduction in LPS-induced TNF-alpha production at 10 to 20 uM preincubated for 1 hr followed by LPS stimulation measured after 6 hrs by ELISA; assay type: functional, cell-based
Enterococcus faecium [40] = assay: Potency index, ratio of LL-37 MIC to compound MIC for Vancomycin-resistant Enterococcus faecium ATCC 51559; assay type: functional

Compound: CC[C@H](C)[C@H](NC(=O)[C@H](CCCNC(=N)N)NC(=O)[C@@H](N)CCCCN)C(=O)N[C@H](C(=O)N[C@@H](CCCCN)C(=O)N[C@H](CC(C)C)C(=O)N[C@H](C(=O)N[C@@H](CC(C)C)C(=O)N[C@@H](CCCCN)C(=O)N[C@@H](Cc1c[nH]c2ccccc12)C(=O)N[C@@H](CC(C)C)C(=O)N[C@@H](CCCNC(=N)N)C(N)=O)[C@@H](C)CC)C(C)C
- Ratio (Pseudomonas aeruginosa [1]): 2 - 4
- Ratio (Staphylococcus aureus [2]): 2 - 4
- Ratio (Staphylococcus aureus [3]): 2 - 4
- selectivity ratio [4]: 61.2
- Ratio (Staphylococcus aureus [5]): 2 - 4
- MIC (Staphylococcus aureus [6]): 16 µM
- MIC (Staphylococcus aureus [7]): 4 µM (≈ 6.26 µg/mL)
- MIC (Escherichia coli [8]): 4 µM (≈ 6.26 µg/mL)
- MIC (Escherichia coli [9]): 4 µM
- MIC (Enterococcus faecium [10]): 4 µM (≈ 6.26 µg/mL)
- Ratio (Pseudomonas aeruginosa [11]): 2 - 4
- Ratio (Pseudomonas aeruginosa [12]): 2 - 4
- MBIC90 (Pseudomonas aeruginosa [13]): 16 µM
- MIC (Pseudomonas aeruginosa [14]): 4 µM (≈ 6.26 µg/mL)
- MIC (Staphylococcus aureus [15]): 2 µM (≈ 3.13 µg/mL)
- Ratio (Staphylococcus aureus [16]): 2 - 8
- Activity (RAW264.7 [17]): Active
- MIC (Staphylococcus aureus [18]): 2 µM
- Activity (Staphylococcus aureus [19]): Active
- fractional inhibitory concentration index (FICI) (Pseudomonas aeruginosa [20]): 0.5
- MIC [21]: 4 µM (≈ 6.26 µg/mL)
- MIC (Bacillus subtilis): 4 µM (≈ 6.26 µg/mL)
- MIC (Staphylococcus aureus [22]): 4 µM (≈ 6.26 µg/mL)
- MIC (Escherichia coli [23]): 16 µM
- Ratio (Staphylococcus aureus [24]): 2 - 4
- Activity (RAW264.7 [25]): Active
- MIC (Salmonella typhimurium): 2 µM (≈ 3.13 µg/mL)
- MIC (Pseudomonas aeruginosa [26]): 8 µM (≈ 12.5 µg/mL)
- fold change (FC) (Pseudomonas aeruginosa [27]): 4 - 8
- Activity (RAW264.7 [28]): Active
- fractional inhibitory concentration index (FICI) (Pseudomonas aeruginosa [29]): 0.375
- MHC10 (Erythrocyte): 202 µM
- MIC (Escherichia coli [30]): 4 µM
- fractional inhibitory concentration index (FICI) (Pseudomonas aeruginosa [31]): 0.3125
- MIC (Escherichia coli [32]): 4 µM
- Activity (NIH3T3): Non-Toxic
- Ratio (Enterococcus faecium [33]): 2 - 4
- Activity (RAW264.7 [34]): Active
- MIC (Staphylococcus aureus [35]): 4 µM
- Ratio (Pseudomonas aeruginosa [36]): 2 - 4
- MIC (Escherichia coli [37]): 4 µM
- Ratio (Staphylococcus aureus [38]): 2 - 4
- KSV (Lipid bilayer): 0.97 M⁻¹
- Activity (RAW264.7 [39]): Active
- Ratio (Enterococcus faecium [40]): 2 - 4

Compound: CC[C@H](C)[C@H](NC(=O)[C@H](CC(C)C)NC(=O)[C@H](CCCCN)NC(=O)[C@@H](NC(=O)[C@@H](NC(=O)[C@H](CCCNC(=N)N)NC(=O)[C@@H](N)CCCCN)[C@@H](C)CC)C(C)C)C(=O)N[C@@H](CC(C)C)C(=O)N[C@@H](CCCCN)C(=O)N[C@@H](Cc1c[nH]c2ccccc12)C(=O)N[C@@H](CC(C)C)C(=O)N[C@@H](CCCNC(=N)N)C(N)=O
- Ratio (Pseudomonas aeruginosa [1]): 2 - 4
- Ratio (Staphylococcus aureus [2]): 2 - 4
- Ratio (Staphylococcus aureus [3]): 2 - 4
- selectivity ratio [4]: 4.4
- Ratio (Staphylococcus aureus [5]): 2 - 4
- MIC (Staphylococcus aureus [6]): 8 µM
- MIC (Staphylococcus aureus [7]): 4 µM (≈ 6.26 µg/mL)
- MIC (Escherichia coli [8]): 8 µM (≈ 12.5 µg/mL)
- MIC (Escherichia coli [9]): 8 µM
- MIC (Enterococcus faecium [10]): 4 µM (≈ 6.26 µg/mL)
- Ratio (Pseudomonas aeruginosa [11]): 2 - 4
- Ratio (Pseudomonas aeruginosa [12]): 2 - 4
- MBIC90 (Pseudomonas aeruginosa [13]): 16 µM
- MIC (Pseudomonas aeruginosa [14]): 8 µM (≈ 12.5 µg/mL)
- MIC (Staphylococcus aureus [15]): 4 µM (≈ 6.26 µg/mL)
- Ratio (Staphylococcus aureus [16]): 2 - 8
- Activity (RAW264.7 [17]): Active
- MIC (Staphylococcus aureus [18]): 2 µM
- Activity (Staphylococcus aureus [19]): Active
- fractional inhibitory concentration index (FICI) (Pseudomonas aeruginosa [20]): 0.375
- MIC [21]: 4 µM (≈ 6.26 µg/mL)
- MIC (Bacillus subtilis): 8 µM (≈ 12.5 µg/mL)
- MIC (Staphylococcus aureus [22]): 8 µM (≈ 12.5 µg/mL)
- MIC (Escherichia coli [23]): 8 µM
- Ratio (Staphylococcus aureus [24]): 2 - 4
- Activity (RAW264.7 [25]): Active
- MIC (Salmonella typhimurium): 2 µM (≈ 3.13 µg/mL)
- MIC (Pseudomonas aeruginosa [26]): 16 µM (≈ 25 µg/mL)
- fold change (FC) (Pseudomonas aeruginosa [27]): 4 - 8
- Activity (RAW264.7 [28]): Active
- fractional inhibitory concentration index (FICI) (Pseudomonas aeruginosa [29]): 0.25
- MHC10 (Erythrocyte): 25 µM
- MIC (Escherichia coli [30]): 8 µM
- fractional inhibitory concentration index (FICI) (Pseudomonas aeruginosa [31]): 0.3125
- MIC (Escherichia coli [32]): 8 µM
- Activity (NIH3T3): Non-Toxic
- Ratio (Enterococcus faecium [33]): 2 - 4
- Activity (RAW264.7 [34]): Active
- MIC (Staphylococcus aureus [35]): 8 µM
- Ratio (Pseudomonas aeruginosa [36]): 2 - 4
- MIC (Escherichia coli [37]): 8 µM
- Ratio (Staphylococcus aureus [38]): 2 - 4
- KSV (Lipid bilayer): 1.12 M⁻¹
- Activity (RAW264.7 [39]): Active
- Ratio (Enterococcus faecium [40]): 2 - 4
